The source of these data is patent publication US7351728B2, “Oxazolyl-aryloxyacetic acid derivatives and their use as PPAR agonists” (Eli Lilly and Company, priority 2003, dated 2008).

For the assay, the system named is db/db mice. The assay is described as follows: Evaluation of glucose levels in db/db mice. The format is in vivo. The conditions noted are these: Mus musculus, 168 h; 30 mg/kg daily oral gavage 7 days, male db/db mice; 100% = lean values; read-out: Glucose Normalization %. Here is the method: Five week old male diabetic (db/db) mice [C57BlKs/j-m +/+ Lepr(db), Jackson Laboratory, Bar Harbor, Me.] or lean littermates (db+) were housed 6 per cage (10″×20″×8″ with aspen chip bedding) with food (Purina 5015) and water available at all times. After an acclimation period of 2 weeks, animals were individually identified by ear notches, weighed, and bled via the tail vein for determination of initial glucose levels. Blood was collected (100 μl) from unfasted animals by wrapping each mouse in a towel, cutting the tip of the tail with a scalpel, and milking blood from the tail into a heparinized capillary tube (Fisher) balanced on the edge of the bench. Sample was discharged into a heparinized microtainer with gel separator (VWR) and retained on ice. Plasma was obtained after centrifugation at 4° C. and glucose measured immediately. Remaining plasma was frozen until the completion of the experiment, when glucose and triglycerides were assayed in all samples. Animals were grouped based on initial glucose levels and body weights. Beginning the following morning, mice were dosed daily by oral gavage for 7 days using a 20 gauge, 1½″ curved disposable feeding needle. Treatments were test compounds (30 mg/kg), a positive control agent (30 mg/kg) or vehicle [1% carboxymethylcellulose (w/v)/0.25% Tween80 (w/v); 0.3 ml/mouse]. On day 7, mice were weighed and bled (tail vein) 3 hours after dosing. Twenty-four hours after the 7th dose (i.e., day 8), animals were bled again (tail vein). Samples obtained from conscious animals on days 0, 7 and 8 were assayed for glucose. After the 24 hour bleed, animals were weighed and dosed for the final time. Three hours after dosing on day 8, animals were anesthetized by inhalation of isoflurane and blood obtained via cardiac puncture (0.5-0.7 ml). Whole blood was transferred to serum separator tubes, chilled on ice and permitted to clot. Serum was obtained after centrifugation at 4° C. and frozen until analysis for compound levels. After sacrifice by cervical dislocation, the liver, heart and epididymal fat pads were excised and weighed.
The animals dosed with vehicle had average triglycerides values of 170-230 mg/dl, which were reduced by the positive PPARγ control (70-120 mg/dl with a mean reduction of 50%). Male db/db mice were hyperglycemic (average glucose of 680-730 mg/dl on the 7th day of treatment), while lean animals had average glucose levels between 190-230 mg/dl.
Glucose was measured colorimetrically using commercially purchased reagents (Sigma #315-500). According to the manufacturers, the procedures were modified from published work (McGowan, M. W., Artiss, J. D., Strandbergh, D. R. & Zak, B. Clin Chem, 20:470-5 (1974) and Keston, A. Specific colorimetric enzymatic analytical reagents for glucose. Abstract of papers 129th Meeting ACS, 31C (1956).); and depend on the release of a mole of hydrogen peroxide for each mole of analyte, coupled with a color reaction first described by Trinder (Trinder, P. Determination of glucose in blood using glucose oxidase with an alternative oxygen acceptor. Ann Clin Biochem, 6:24 (1969)). The absorbance of the dye produced is linearly related to the analyte in the sample. The assays were further modified in our laboratory for use in a 96 well format. Standards (Sigma #339-11, Sigma #16-11, and Sigma #CC0534 for glucose triglycerides and total cholesterol, respectively), quality control plasma (Sigma # A2034), and samples (2 or 5 μl/well) were measured in duplicate using 200 μl of reagent. An additional aliquot of sample, pipetted to a third well and diluted in 200 μl water, provided a blank for each specimen. Plates were incubated at room temperature (18, 15, and 10 minutes for glucose, triglycerides and total cholesterol, respectively) on a plate shaker (DPC Micormix 5) and absorbance read at 500 nm (glucose and total cholesterol) or 540 nm (triglycerides) on a plate reader (Wallac Victor 1420). […]
Regarding `Cc1oc(-c2ccccc2)nc1CCOc1ccc(OC(C)(C)C(=O)O)cc1` [Example 1, 2-Methyl-2-{4-[2-(5-methyl-2-phenyloxazol-4-yl)ethoxy]phenoxy}propionic acid], the inhibition in vivo at 30 mg/kg was found to be 38%. The same measure for `Cc1oc(-c2cccc(Br)c2)nc1CCOc1ccc(OC(C)(C)C(=O)O)cc1` [Example 9A, 2-(4-{2-[2-(3-Bromophenyl)-5-methyloxazol-4-yl]ethoxy}phenoxy)-2-methylpropionic acid]: 86%; for `CCc1cccc(-c2nc(CCOc3ccc(OC(C)(C)C(=O)O)cc3)c(C)o2)c1` [Example 12, 2-(4-{2-[2-(3-Ethylphenyl)-5-methyloxazol-4-yl]ethoxy}phenoxy)-2-methylpropionic acid]: 101%. The same measure for `Cc1oc(-c2cccc(CCc3ccccc3)c2)nc1CCOc1ccc(OC(C)(C)C(=O)O)cc1` [Example 12A, 2-Methyl-2-(4-{2-[5-methyl-2-(3-phenethylphenyl)oxazol-4-yl]ethoxy}phenoxy)-propionic acid]: 51%; for `CCc1ccc(-c2nc(CCOc3ccc(OC(C)(C)C(=O)O)cc3)c(C)o2)cc1` [Example 13, 2-(4-{2-[2-(4-Ethylphenyl)-5-methyloxazol-4-yl]ethoxy}phenoxy)-2-methylpropionic acid]: 65%; for `Cc1oc(-c2ccc(OC3CCCCC3)cc2)nc1CCOc1ccc(OC(C)(C)C(=O)O)cc1` [Example 21, 2-(4-{2-[2-(4-Cyclohexyloxy-phenyl)-5-methyl-oxazol-4-yl]-ethoxy}-phenoxy)-2-methyl-propionic acid]: 23%. `Cc1cc(OCCc2nc(-c3ccccc3)oc2C)ccc1OC(C)(C)C(=O)O` [Example 24, 2-Methyl-2-{2-methyl-4-[2-(5-methyl-2-phenyloxazol-4-yl)ethoxy]phenoxy}propionic acid]: the inhibition in vivo at 30 mg/kg was 72%. Consider `CCCc1cc(OCCc2nc(-c3ccccc3)oc2C)ccc1OCC(=O)O` [Example 26, {4-[2-(5-methyl-2-phenyl-oxazol-4-yl)ethoxy]-2-propylphenoxy}acetic acid], for which the inhibition in vivo at 30 mg/kg was 42%.

Turning to `CCCc1cc(OCCc2nc(-c3ccccc3)oc2C)ccc1OC(C)(C)C(=O)O` [Example 26A, 2-Methyl-2-{4-[2-(5-methyl-2-phenyloxazol-4-yl)ethoxy]-2-propylphenoxy}propionic acid], the inhibition in vivo at 30 mg/kg came to 77%. Regarding `CCCc1cc(OC(C)(C)C(=O)O)ccc1OCCc1nc(-c2ccccc2)oc1C` [Example 27A, 2-Methyl-2-{4-[2-(5-methyl-2-phenyloxazol-4-yl)ethoxy]-3-propylphenoxy}propionic acid], the inhibition in vivo at 30 mg/kg came out at 62%. The same measure for `CCc1cc(OCCc2nc(-c3ccccc3)oc2C)ccc1OC(C)(C)C(=O)O` [Example 30A, 2-{2-Ethyl-4-[2-(5-methyl-2-phenyloxazol-4-yl)ethoxy]phenoxy}2-methylpropionic acid]: 76%; for `Cc1oc(-c2ccccc2)nc1CCOc1ccc(OC(C)(C)C(=O)O)c(CC(C)C)c1` [Example 30C, 2-{2-Isobutyl-4-[2-(5-methyl-2-phenyloxazol-4-yl)ethoxy]phenoxy}-2-methylpropionic acid]: 48%. The same measure for `Cc1oc(-c2ccccc2)nc1CCOc1ccc(OC(C)(C)C(=O)O)c(CCc2ccccc2)c1` [Example 30J, 2-Methyl-2-{4-[2-(5-methyl-2-phenyloxazol-4-yl)ethoxy]-2-phenethylphenoxy}propionic acid]: 58%; for `CCCCc1cc(OC(C)(C)C(=O)O)ccc1OCCc1nc(-c2ccccc2)oc1C` [Example 31F, 2-{3-Butyl-4-[2-(5-methyl-2-phenyloxazol-4-yl)ethoxy]phenoxy}-2-methylpropionic acid]: 77%. To `Cc1oc(-c2ccccc2)nc1CCOc1ccc(OC(C)(C)C(=O)O)c(Cc2ccccc2)c1` [Example 32, 2-{2-Benzyl-4-[2-(5-methyl-2-phenyloxazol-4-yl)ethoxy]phenoxy}-2-methylpropionic acid] belongs 47%; to `Cc1oc(-c2ccccc2)nc1CCOc1ccc(OC(C)(C)C(=O)O)c2ccccc12` [Example 37, 2-Methyl-2-{4-[2-(5-methyl-2-phenyl-oxazol-4-yl)-ethoxy]-naphthalen-1-yloxy}-propionic acid], 56%. As for `Cc1oc(-c2ccccc2)nc1CCOc1ccc(OC(C)(C)C(=O)O)c2c1CCCC2` [Example 38, 2-Methyl-2-{4-[2-(5-methyl-2-phenyl-oxazol-4-yl)-ethoxy]-5,6,7,8-tetrahydro-naphthalen-1-yloxy}-propionic acid], the inhibition in vivo at 30 mg/kg was found to be 38%.
